Test results as given in US20110244497A1, “METHOD FOR JUDGING SUSCEPTIBILITY OF CANCER CELLS TO ANTHRACYCLINE ANTICANCER AGENT AND COMPUTER PROGRAM” (SYSMEX CORPORATION, priority 2010, published 2011).

Tested on: 29 types of breast cancer cell lines
Experiment: Measurement of IC50 of doxorubicin, Celltiter Glo Luminescent Cell Viability Assay
Assay type: cell-based
Settings: median over 29 human breast cancer cell lines; doxorubicin 0-2000 nM; growth measured 72 hours after culture-medium exchange; used as threshold sensitive/nonsensitive
Method: 29 types of breast cancer cell lines shown in Reference example 1 were inoculated into wells on two sheets of microplates at 5000 cells/100 uL/well using culture media containing doxorubicin at 0 nM, 250 nM, 500 nM, 750 nM, 1000 nM, and 2000 nM concentrations, followed by culturing for 24 hours.
Culture media containing doxorubicin at respective concentrations were prepared and the culture medium exchange was performed. Immediately after the culture-medium exchange, the growth of the cells on one of the microplates was measured using Celltiter Glo Luminescent Cell Viavility Assay (Cat#G7571: manufactured by Promega KK.). The remaining microplate was cultured under the culture conditions shown in Reference example 1 for 72 hours after the culture-medium exchange. Thereafter, the growth of the cells was measured using Celltiter Glo Luminescent Cell Viavility Assay (Cat#G7571: manufactured by Promega KK.).
On the basis of the number of the living cells measured, the concentration (IC50) of doxorubicin (the number of […]×100=50) was determined.

**Q.** With `COc1cccc2c1C(=O)c1c(O)c3c(c(O)c1C2=O)C[C@@](O)(C(=O)CO)C[C@@H]3O[C@H]1C[C@H](N)[C@H](O)[C@H](C)O1` [doxorubicin] as the compound, how does the IC50 read?
**A.** 392 nM
